# Data taken from patent publication US20240228572A1 (i2o Therapeutics, Inc., priority 2020, published 2024).
# *1 amine or outer side, *2 acyl side, *3 side chain or, on linkers, in order; H or OH if unused. Where a SMILES comes first, the peptide text is derived from it. Side-chain parts run from the residue outwards. [ ]: non-standard residue; d: D form. The star is where a group is joined. C20 diacid = O=C(O)CCCCCCCCCCCCCCCCCCC(=O)*; γGlu = O=C(O)[C@H](CCC(=O)[*:2])N[*:1]; AEEA = NCCOCCOCC(=O)O; Aib = CC(C)(N)C(=O)O
# How the values were obtained:
# [1] = Stability in subcutaneous (SC) tissue homogenates, monkey; type: in vitro ADME; conditions: subcutaneous (SC) tissue homogenate, pH 7.4, read-out: (H)SC tissue stability t½ (converted)
# Method: In vitro incubations in subcutaneous (SC) tissue homogenates were used to characterize the ability of peptides to resist pre-systemic degradation by proteases and peptidases after SC administration. In vivo nonclinical studies have shown that peptidase activity in the SC space can limit the bioavailability of a peptide after SC administration. Peptides with high SC bioavailability are stable in this assay, while peptides with low SC bioavailability are unstable in this assay.
# Human SC tissue was homogenized in cold 25 mM HEPES buffer (pH 7.4, 10-fold volume based on sample weight), and then filtered through a double layer of cheesecloth. The filtrates were aliquoted, flash frozen on a methanol/dry ice bath and stored at −80° C. The protein concentration of each pooled batch was determined using the BCA protein assay. Thawed stocks of human SC tissue homogenates were diluted to 1.0 mg protein/mL in 25 mM HEPES buffer (pH 7.4) and aliquoted into a 96-well plate. The diluted SC homogenates were pre-warmed for 10 minutes at 37° C. Reactions were initiated by the addition of test peptide (10 mcM final concentration) also dissolved in 25 mM HEPES buffer (pH 7.4). Reactions were maintained at 37° C. in a shaking water bath. […] Samples were analyzed by UPLC-MS/MS.
# [2] = biological target: serum albumin (Homo sapiens, UniProt P02768); experiment: Fraction unbound (fu) in plasma by surface plasmon resonance, human; type: in vitro ADME; conditions: SPR binding to serum albumin
# Method: Conventional methods of measuring plasma protein binding, such as equilibrium dialysis, ultrafiltration and ultracentrifugation, are not reliable with peptides because of their tendency to adsorb to the surface of plastic tubing, dialysis membranes and molecular weight cut-off filters. As a result, the extent to which acylated peptides bind to serum albumin was evaluated using surface plasmon resonance (SPR).
# [3] = Intravenous infusion pharmacokinetics in rats; type: in vivo; conditions: rat, plasma, IV infusion 0.033 mg/kg, male Sprague-Dawley rats
# Method: Peptides were dissolved in 0.05% Tween-20 in phosphate buffered saline and administered as a 1-hour intravenous infusion to non-fasted male Sprague-Dawley rats (n=3 per group) via femoral vein cannula at a final dose of 0.033 mg/kg. Formulations were administered at a rate of 1.67 mL/kg/h. Blood samples (approximately 250 μL) were collected for pharmacokinetic analysis via a jugular vein cannula at 0.25, 0.5, 0.75, 1, 1.17, 1.33, 1.5, 2, 4, 8, 24, 48, 72, and 96 hours post-start of infusion into microtainer tubes containing K2EDTA as anticoagulant and 25 μL of a protease inhibitor cocktail. Plasma was prepared by centrifugation and stored at −80° C. until analysis.
# A 70 μL aliquot of each plasma sample was placed into to a 96-well plate. To each well was added 210 μL of 0.1% TFA in 2:1 ethanol:acetonitrile containing an appropriate internal standard. Plates were vortex mixed for 10 min at 1300 rpm, and then centrifuged for 10 min at 500× g. Supernatants (210 μL) were placed into a clean 96-well plate and evaporated under a nitrogen stream at 45° C. Residues were reconstituted in 80 μL of 20% acetonitrile (aq) containing 0.1% formic acid.
# All calibration standards were prepared in control rat plasma containing K2EDTA and protease inhibitor cocktail.
# Samples and standards were analyzed by electrospray ionization (ESI) UPLC-MS/MS using a system consisting of a CTC HTS PAL auto-injector (Leap, Carrboro, NC), an Agilent Infinity 1290 system with column oven (Palo Alto, CA), a Valco switching valve (Houston, TX), and a Sciex TripleTOF® 5600 mass spectrometer (Framingham, MA). Samples were injected onto a 2.1×50 mm reverse phase C18 analytical column, typically a Waters CORTECS UPLC C18+, 1.6 μm (Waters Corporation, Milford, MA) or similar. […] Initial conditions consisted of 95% A and 5% B. The organic component was increased to 95% B over a period of 3-4 minutes, depending on the peptide. Typical flow rates were 550 μL/min. The column temperature was held constant at 45° C. Peptides were quantified by monitoring one or more product ions produced from a multiply charged parent ion.
# Sequence of serum albumin (P02768 25-609): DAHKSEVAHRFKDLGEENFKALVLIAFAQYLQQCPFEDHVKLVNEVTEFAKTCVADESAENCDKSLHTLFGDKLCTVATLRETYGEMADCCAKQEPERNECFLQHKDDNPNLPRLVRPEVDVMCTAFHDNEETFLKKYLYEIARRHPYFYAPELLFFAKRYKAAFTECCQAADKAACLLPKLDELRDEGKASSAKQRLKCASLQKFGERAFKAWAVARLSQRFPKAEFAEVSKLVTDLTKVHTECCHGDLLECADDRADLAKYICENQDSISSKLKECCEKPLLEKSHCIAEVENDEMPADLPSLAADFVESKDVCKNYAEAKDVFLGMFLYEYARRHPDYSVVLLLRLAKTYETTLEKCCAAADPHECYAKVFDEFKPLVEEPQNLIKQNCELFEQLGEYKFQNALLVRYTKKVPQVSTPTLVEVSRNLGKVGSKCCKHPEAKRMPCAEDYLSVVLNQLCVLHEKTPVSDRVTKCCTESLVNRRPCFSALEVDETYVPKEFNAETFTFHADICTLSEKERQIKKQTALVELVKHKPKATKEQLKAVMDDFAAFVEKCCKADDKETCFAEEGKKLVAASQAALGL
compound,measurement,setting,value
CC(C)C[C@H](NC(=O)[C@H](Cc1ccc(O)cc1)NC(=O)[C@H](CCCCN)NC(=O)[C@H](CO)NC(=O)[C@H](Cc1ccc(O)cc1)NC(=O)[C@H](CC(=O)O)NC(=O)[C@H](CO)NC(=O)[C@@H](NC(=O)[C@H](Cc1ccccc1)NC(=O)[C@@H](NC(=O)CNC(=O)[C@H](Cc1c[nH]cn1)NC(=O)[C@H](CO)NC(=O)[C@@H](N)Cc1ccc(O)cc1)[C@@H](C)O)[C@@H](C)O)C(=O)N[C@@H](CC(=O)O)C(=O)NC(C)(C)C(=O)N[C@@H](CCCCN)C(=O)N[C@@H](Cc1ccc(O)cc1)C(=O)N[C@@H](C)C(=O)N[C@@H](CCC(N)=O)C(=O)N[C@@H](CCCCNC(=O)CC[C@H](NC(=O)CC[C@H](NC(=O)COCCOCCNC(=O)CCCCCCCCCCCCCCCCCCC(=O)O)C(=O)O)C(=O)O)C(=O)N[C@@H](Cc1ccccc1)C(=O)N[C@H](C(=O)NC(C)(C)C(=O)N[C@@H](Cc1c[nH]c2ccccc12)C(=O)N[C@@H](CC(C)C)C(=O)N[C@@H](CCC(=O)O)C(=O)N[C@@H](CC(=O)O)C(=O)N[C@@H](CCC(=O)O)C(=O)N1CCC[C@H]1C(=O)N[C@@H](CO)C(=O)N[C@@H](CO)C(=O)NCC(=O)N[C@@H](C)C(=O)N1CCC[C@H]1C(=O)N1CCC[C@H]1C(=O)N1CCC[C@H]1C(=O)N[C@@H](CO)C(=O)O)C(C)C [Compound A6] (H-YSHGTFTSDYSKYLD[Aib]KYAQK([γGlu-γGlu-AEEA-C20 diacid])FV[Aib]WLEDEPSSGAPPPS-OH; N-terminus assumed),half-life at 10 mcM,[1],300 min
same,fraction unbound,[2],0.0072
same,clearance,[3]; 1-hour,4.97 mL/h/kg
same,half-life,[3],780 min
same,Vd,[3]; read-out: Vss,0.0867 L/kg
